From the supplement of paper PMC13380429
± gives the standard deviation of the averaged measurements.

Key:
Settings in all cases: 72 h
Caco-2 [1] = experiment: cell viability relative to DMSO; higher = less toxic
HepG2 [2] = experiment: as above
Vero E6 [3] = experiment: as above
Calu-3 [4] = experiment: as above
Caco-2 [5] = experiment: drug sensitivity score (DSS) for viability; higher = more toxic; extreme values may be limits of the assay
HepG2 [6] = experiment: as above
Vero E6 [7] = experiment: as above
Calu-3 [8] = experiment: as above
Caco-2 [9] = experiment: relative viability EC50 (midpoint between 100% and the lowest measured viability); higher = less toxic
HepG2 [10] = experiment: as above
Vero E6 [11] = experiment: as above
Calu-3 [12] = experiment: as above
U2OS [13] = experiment: cell viability relative to DMSO; higher = less toxic
U2OS [14] = experiment: drug sensitivity score (DSS) for viability; higher = more toxic; extreme values may be limits of the assay
U2OS [15] = experiment: relative viability EC50 (midpoint between 100% and the lowest measured viability); higher = less toxic

SMILES | cell viability (Caco-2 [1]; 1 nM) [%] | cell viability (Caco-2 [1]; 10 nM) [%] | cell viability (Caco-2 [1]; 100 nM) [%] | cell viability (Caco-2 [1]; 1000 nM) [%] | cell viability (Caco-2 [1]; 10000 nM) [%] | cell viability (HepG2 [2]; 1 nM) [%] | cell viability (HepG2 [2]; 10 nM) [%] | cell viability (HepG2 [2]; 100 nM) [%] | cell viability (HepG2 [2]; 1000 nM) [%] | cell viability (HepG2 [2]; 10000 nM) [%] | cell viability (Vero E6 [3]; 1 nM) [%] | cell viability (Vero E6 [3]; 10 nM) [%] | cell viability (Vero E6 [3]; 100 nM) [%] | cell viability (Vero E6 [3]; 1000 nM) [%] | cell viability (Vero E6 [3]; 10000 nM) [%] | cell viability (Calu-3 [4]; 1 nM) [%] | cell viability (Calu-3 [4]; 10 nM) [%] | cell viability (Calu-3 [4]; 100 nM) [%] | cell viability (Calu-3 [4]; 1000 nM) [%] | cell viability (Calu-3 [4]; 10000 nM) [%] | drug sensitivity score (Caco-2 [5]) | drug sensitivity score (HepG2 [6]) | drug sensitivity score (Vero E6 [7]) | drug sensitivity score (Calu-3 [8]) | relative viability EC50 (Caco-2 [9]) [µM] | relative viability EC50 (HepG2 [10]) [µM] | relative viability EC50 (Vero E6 [11]) [µM] | relative viability EC50 (Calu-3 [12]) [µM] | cell viability (U2OS [13]; 1 nM) [%] | cell viability (U2OS [13]; 10 nM) [%] | cell viability (U2OS [13]; 100 nM) [%] | cell viability (U2OS [13]; 1000 nM) [%] | cell viability (U2OS [13]; 10000 nM) [%] | drug sensitivity score (U2OS [14]) | relative viability EC50 (U2OS [15]) [nM]
CC(C)(C#N)c1ccc(N2C(=O)OCc3cnc4ccc(-c5cnc6ccccc6c5)cc4c32)cc1 | 107 | 108 | 102 | 75 | 77.4 | 116 | 113 | 96.4 | 100 | 89.6 | 109 | 104 | 103 | 97.4 | 84.6 | 110 | 97.3 | 110 | 68.3 | 41.5 | 3.7 | 0 | 0.5 | 7.1 | > 10 | > 10 | > 10 | 0.939 | – | – | – | – | – | – | –
CC1=C(C(=O)Nc2cc3cn[nH]c3cc2F)C(c2ccc(C(F)(F)F)cc2)CC(=O)N1 (configuration not stated) | 83 | 89.6 | 91.3 | 99.1 | 102 | 100 | 103 | 104 | 95.6 | 92 | 102 | 104 | 101 | 82.5 | 84.4 | – | – | – | – | – | 0 | 0 | 2 | – | > 10 | > 10 | > 10 | – | 94.9 | 97.9 | 92.3 | 96.8 | 86.3 | 0 | > 10000
CC1Oc2cc(cnc2N)-c2c(nn(C)c2C#N)CN(C)C(=O)c2ccc(F)cc21 (configuration not stated) | 89.2 ± 7.6 | 97 ± 8 | 96.15 ± 0.21 | 91.6 ± 4.1 | 83.4 ± 7.8 | 95 ± 4.1 | 101 ± 9.8 | 99.3 ± 4.7 | 87.5 ± 6.2 | 72.2 ± 6.9 | 103 ± 4.9 | 92 ± 6.6 | 90.5 ± 2.6 | 80.2 ± 0.28 | 83.2 ± 7.3 | 105 ± 5.7 | 95.5 ± 3.8 | 88.7 ± 2.4 | 74.8 ± 4.3 | 78.7 ± 7.5 | 0 | 2.5 ± 1.6 | 3.35 ± 0.35 | 4.85 ± 1.1 | > 10 | – | > 10 | – | 97.8 ± 2.6 | 103.8 ± 0.64 | 97.2 ± 2.4 | 96.6 ± 1.4 | 83.5 ± 8.1 | 0.7 ± 0.99 | > 10000
Cn1cc(-c2[nH]c3cc(NC(=O)[C@H](N)C4CCCCC4)cc4c3c2C=NNC4=O)cn1 | 106 | 98.2 | 97.8 | 104 | 25.9 | 97.3 | 103 | 91.5 | 50.9 | 30.7 | 95.4 | 99.4 | 98.3 | 95.3 | 84.5 | 109 | 98.7 | 114 | 66.7 | 51.2 | 3.7 | 10.3 | 0.6 | 6.5 | 3.48 | 0.493 | > 10 | – | 99.9 | 98.4 | 96.3 | 8.5 | 4.2 | 17.1 | 324
NC(=O)c1cnc2[nH]ccc2c1N[C@@H]1[C@@H]2CC3C[C@H]1C[C@@](O)(C3)C2 | 101 | 101 | 90.5 | 104 | 113 | 113 | 112 | 107 | 109 | 47 | 95.4 | 97.6 | 99.6 | 107 | 101 | – | – | – | – | – | 0 | 2.3 | 0 | – | > 10 | 3.87 | > 10 | – | 96.4 | 97.1 | 96.5 | 93.1 | 67.2 | 2.6 | –
Clc1cccc(/C=N/N=C/c2cccc(Cl)c2)c1 [3,3'-dichlorobenzaldazine] | 103 | 99.1 | 105 | 94.7 | 103 | 94.8 | 95.6 | 101 | 100 | 84.5 | 99.6 | 103 | 99.5 | 98.9 | 99.5 | 107 | 93.9 | 96.7 | 97.5 | 96.1 | 0 | 0.3 | 0 | 0 | > 10 | > 10 | > 10 | > 10 | – | – | – | – | – | – | –
CC(=O)N1CCC[C@H]1C(=O)N[C@@H](Cc1cnc[nH]1)C(=O)N[C@@H](CO)C(=O)N[C@@H](CS)C(=O)N[C@@H](CC(N)=O)C(N)=O [ATN-161] | 107 | 96.6 | 97.5 | 103 | 104 | 102 | 104 | 106 | 93.4 | 106 | 92.9 | 103 | 96.9 | 100 | 108 | 102 | 102 | 101 | 107 | 97.2 | 0 | 0 | 0 | 0 | > 10 | > 10 | > 10 | > 10 | – | – | – | – | – | – | –
C[C@@H]1COCCN1c1cc(C2([S@](C)(=N)=O)CC2)nc(-c2ccnc3[nH]ccc23)n1 [AZD6738] | 92.8 | 100 | 103 | 96.7 | 49.8 | 94.5 | 88.6 | 104 | 67.7 | 35.6 | 98.8 | 94.5 | 92.1 | 90.9 | 78.5 | 92.8 | 96 | 108 | 92.7 | 50.2 | 3.1 | 7.6 | 1.3 | 3.9 | 2.65 | 0.998 | > 10 | – | 94.1 | 101 | 100 | 96.8 | 16.8 | 5.1 | 2880
O=c1[nH]c2ccc(Cl)cc2c(N[C@@H]2CN3CCC2CC3)c1-c1nc2ccccc2[nH]1 [CHIR-124] | 103 | 96.9 | 111 | 66.9 | 44 | 103 | 99.3 | 101 | 36.7 | 3.1 | 105 | 103 | 105 | 77.6 | 6.6 | 92.3 | 91.8 | 105 | 97.3 | 59.9 | 7 | 12.7 | 8.6 | 2.4 | 0.869 | 0.777 | 1.59 | – | 94.1 | 96.9 | 95.3 | 4.5 | 0.8 | 18 | 307
O=C1COc2nccc(-c3ccccc3F)c2CN1Cc1cc(C(F)(F)F)cc(C(F)(F)F)c1 [GPBAR-A] | 102 | 102 | 106 | 102 | 86.9 | 108 | 91.3 | 103 | 94.4 | 100 | 101 | 99 | 98.9 | 101 | 102 | 81.2 | 104 | 67.2 | 98.7 | 68.1 | 0.1 | 0 | 0 | 4.3 | > 10 | > 10 | > 10 | – | 97.7 | 103 | 100 | 104 | 91.2 | 0 | > 10000
CNc1ncnc2c1ncn2[C@@H]1O[C@H](CO)[C@@H](O)[C@H]1O [N6-methyladenosine] | 109 | 112 | 98.5 | 110 | 106 | 105 | 108 | 101 | 104 | 81.2 | 99.8 | 103 | 102 | 98.7 | 102 | 110 | 89.5 | 102 | 92 | 86 | 0 | 0.3 | 0 | 0.7 | > 10 | > 10 | > 10 | > 10 | – | – | – | – | – | – | –
CCNC(=O)[C@H]1O[C@@H](n2cnc3c(N)ncnc32)[C@H](O)[C@@H]1O [NECA] | 102 | 97.6 | 110 | 111 | 110 | 94.8 | 102 | 107 | 105 | 105 | 100 | 105 | 96.1 | 101 | 94.4 | 106 | 102 | 94.9 | 88.5 | 92.8 | 0 | 0 | 0 | 0.6 | > 10 | > 10 | > 10 | > 10 | – | – | – | – | – | – | –
Cn1cc(-c2ccc3ncc(Cc4ccc5ncccc5c4)n3n2)cn1 [NVP-BVU972] | 96.2 | 99.2 | 93.8 | 97.8 | 76.4 | 105 | 107 | 87.2 | 35.8 | 15.6 | 103 | 100 | 103 | 108 | 87.8 | 95.9 | 100 | 98.6 | 101 | 80.8 | 1.2 | 13.6 | 0 | 0.5 | > 10 | 0.404 | > 10 | > 10 | – | – | – | – | – | – | –
O=c1onc2cnc3ccccc3n12 [ODQ] | 91.3 | 96 | 95.2 | 89.9 | 112 | 105 | 110 | 100 | 110 | 94.3 | 97.9 | 96.4 | 97.6 | 108 | 105 | – | – | – | – | – | 0 | 0 | 0 | – | > 10 | > 10 | > 10 | – | – | – | – | – | – | – | –
O=C(O)[C@H](Cc1c[nH]c2ccccc12)N1C(=O)c2ccccc2C1=O [RG108] | 96.8 | 100 | 91.9 | 106 | 102 | 118 | 109 | 114 | 99.8 | 109 | 97.4 | 99.1 | 97.6 | 92 | 101 | – | – | – | – | – | 0 | 0 | 0 | – | > 10 | > 10 | > 10 | – | 105 | 105 | 97.1 | 105 | 96.2 | 0 | > 10000
O=C(O)CCN(O)C(=O)CCCCCCCCC1CC1 [TC-E-5002] | 89 | 97.7 | 91.3 | 92.1 | 91.9 | 96.1 | 103 | 101 | 99.3 | 104 | 97.2 | 99.2 | 97.7 | 93.2 | 94.9 | – | – | – | – | – | 0 | 0 | 0 | – | > 10 | > 10 | > 10 | – | – | – | – | – | – | – | –
